According to ChEMBL document CHEMBL1201862, “PubChem BioAssay data set” (2004):
Activity calls are given as the source filed them.

Columns and labels:
[1] = inhibitors of intracellular T. cruzi replication, confirmation, NIH3T3 host cells, beta-gal luminescence (AID 2044); type: functional, cell-based;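 also: intracellular parasites grown in NIH/3T3 mouse fibroblasts as host cells; luminescent beta-galactosidase reporter signal from transgenic T. cruzi replicating inside host cells; inhibitors lower the luminescence signal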
[2] = cytotoxicity toward NIH3T3 fibroblasts, dose response, counter-screen, cell-based, ATP luminescence, mouse fibroblasts (AID 2010); type: functional;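 also: cells exposed to compound for about 90 hours before reading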
[3] = target: T1, Corticotropin-releasing factor receptor 2/Corticotropin-releasing factor-binding protein (Homo sapiens, UniProt P24387+Q13324); assay: activators of CRF receptor 2 with binding protein – uHTS hits, confirmation (AID 602473); type: functional; details: read-out: EC50_Mean
T1 sequence (Q13324 whole entry): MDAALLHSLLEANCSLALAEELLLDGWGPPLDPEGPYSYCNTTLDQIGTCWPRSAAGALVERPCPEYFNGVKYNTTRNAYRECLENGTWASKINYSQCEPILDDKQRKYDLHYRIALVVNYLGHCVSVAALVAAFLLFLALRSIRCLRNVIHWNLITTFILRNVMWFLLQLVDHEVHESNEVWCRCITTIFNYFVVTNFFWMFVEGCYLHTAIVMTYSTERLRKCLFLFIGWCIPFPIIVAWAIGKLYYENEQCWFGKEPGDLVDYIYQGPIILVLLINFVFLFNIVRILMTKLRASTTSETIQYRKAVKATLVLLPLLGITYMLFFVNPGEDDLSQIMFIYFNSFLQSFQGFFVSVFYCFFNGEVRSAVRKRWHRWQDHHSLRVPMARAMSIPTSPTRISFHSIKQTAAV
T1 sequence (P24387 whole entry): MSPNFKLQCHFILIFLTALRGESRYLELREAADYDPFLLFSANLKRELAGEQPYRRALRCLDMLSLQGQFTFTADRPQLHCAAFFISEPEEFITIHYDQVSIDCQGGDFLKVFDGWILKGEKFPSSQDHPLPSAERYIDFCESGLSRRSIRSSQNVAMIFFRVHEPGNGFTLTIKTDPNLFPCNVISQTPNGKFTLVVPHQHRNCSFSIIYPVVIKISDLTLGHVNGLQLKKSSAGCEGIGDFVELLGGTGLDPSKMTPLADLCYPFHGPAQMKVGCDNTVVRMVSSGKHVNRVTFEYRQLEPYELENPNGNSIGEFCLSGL

Cytochrome P450 2C19 = Cytochrome P450 2C19 (Homo sapiens, UniProt P33261); assay: Cytochrome panel assay with activity outcomes. Panel member name: p450-cyp2c19 Compounds with AC50 equal or less than 10 uM are considered active; type: functional; details: read-out: AC50
Chain of Cytochrome P450 2C19 (P33261 whole entry): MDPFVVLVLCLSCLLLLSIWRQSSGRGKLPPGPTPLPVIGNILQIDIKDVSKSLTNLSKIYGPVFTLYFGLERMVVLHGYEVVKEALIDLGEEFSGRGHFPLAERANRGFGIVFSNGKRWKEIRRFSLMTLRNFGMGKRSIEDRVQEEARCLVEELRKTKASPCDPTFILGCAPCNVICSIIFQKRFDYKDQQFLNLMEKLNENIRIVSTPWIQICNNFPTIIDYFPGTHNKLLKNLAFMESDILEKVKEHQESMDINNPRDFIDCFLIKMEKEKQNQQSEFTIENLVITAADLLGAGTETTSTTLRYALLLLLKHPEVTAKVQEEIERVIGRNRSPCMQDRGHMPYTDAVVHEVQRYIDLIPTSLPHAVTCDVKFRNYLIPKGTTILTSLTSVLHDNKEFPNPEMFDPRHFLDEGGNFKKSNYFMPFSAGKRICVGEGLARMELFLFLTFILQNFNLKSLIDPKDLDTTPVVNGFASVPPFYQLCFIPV

Cytochrome P450 2C9 = Cytochrome P450 2C9 (Homo sapiens, UniProt P11712)
Chain of Cytochrome P450 2C9 (P11712 whole entry): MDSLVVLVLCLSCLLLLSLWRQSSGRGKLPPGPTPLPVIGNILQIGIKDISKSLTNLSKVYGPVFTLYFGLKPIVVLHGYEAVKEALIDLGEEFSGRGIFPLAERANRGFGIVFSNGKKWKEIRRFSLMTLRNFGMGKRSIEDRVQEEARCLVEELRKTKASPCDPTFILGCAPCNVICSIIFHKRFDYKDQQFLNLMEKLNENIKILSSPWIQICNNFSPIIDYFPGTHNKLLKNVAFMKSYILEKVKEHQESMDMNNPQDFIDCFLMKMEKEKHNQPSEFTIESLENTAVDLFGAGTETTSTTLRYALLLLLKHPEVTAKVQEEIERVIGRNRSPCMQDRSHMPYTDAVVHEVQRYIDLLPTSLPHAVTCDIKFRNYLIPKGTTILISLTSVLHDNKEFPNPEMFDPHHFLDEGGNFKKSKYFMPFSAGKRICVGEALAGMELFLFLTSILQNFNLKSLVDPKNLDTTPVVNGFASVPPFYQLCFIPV

Structure (SMILES) | EC50 [1] | EC50 [2] | further results
NC(=S)N/N=C/c1ccc(-n2nncc2-c2ccc(Cl)cc2)cc1 | 1.64 µM (active) | > 60 µM (not active) | 
OCC[n+]1ccc(/C=C/c2c[nH]c3ccccc23)cc1 |  |  | EC50 [3]: 8.55 µM (active)
Cc1nn(Cc2ccc(Cl)cc2)c(C)c1NC(=O)CCCn1nc([N+](=O)[O-])c(Cl)c1C | 0.318 µM (active) | > 30 µM (not active) | 
O=C(Nc1ccncc1)Nc1cc(Cl)ccc1Cl | 0.469 µM (active) | > 30 µM (not active) | 
O=C1NCCc2c1[nH]c1ccccc21 |  |  | AC50 (Cytochrome P450 2C19): 15.8 µM (inconclusive)
Cc1cccc2cc(CN(Cc3cccnc3)C(=O)c3ccccc3F)c(Cl)nc12 | 0.204 µM (active) | > 60 µM (not active) | 
Cc1ccc(C)c(S(=O)(=O)NC(CC(C)C)C(=O)O)c1 (centres undefined) |  |  | AC50 (Cytochrome P450 2C19): 39.8 µM (inconclusive)
O=[N+]([O-])c1ccc2[nH]c(-[n+]3c(-c4ccccc4)cc(-c4ccccc4)cc3-c3ccccc3)nc2c1 | 1.18 µM (active) | > 60 µM (not active) | 
Cc1onc(-c2ccccc2)c1CNC(=O)Nc1ccc(C(F)(F)F)cc1 | 4.33 µM (active) | > 60 µM (not active) | 
C=CCc1cccc(/C=N/NC(=O)c2ccccc2Br)c1O | 1.72 µM (active) | 8.77 µM (active) | 
Cc1cc(Cl)ccc1OC(C)C(=O)Nc1ccccc1N1CCOCC1 (centres undefined) |  |  | EC50 [3]: 6 µM (active)
CC(CCc1ccccc1)NC(=O)C(=O)NCCO (centres undefined) |  |  | AC50 (Cytochrome P450 2C9): 0.794 µM (inconclusive)
COCC(=O)N1CCC2(CC1)CCN(c1cccc(-c3ccccc3)c1)CC2 |  |  | AC50 (Cytochrome P450 2C19): 39.8 µM (inconclusive)
CC(C)(Oc1ccc([C@@H]2CC2(Cl)Cl)cc1)C(=O)O |  |  | AC50 (Cytochrome P450 2C9): 31.6 µM (inconclusive)
O=C(CSc1nc(=O)n2ccccc2n1)N1N=C(c2cccs2)CC1c1ccc(F)cc1 (centres undefined) | 1.51 µM (active) | > 60 µM (not active) | 
COC(=O)c1[nH]c2ccccc2c1NC(=O)CN1CCCc2ccccc21 | 0.89 µM (active) | > 60 µM (not active) | 

Structure (SMILES) | EC50 [1] | EC50 [2] | further results
COc1ccc(OC)c(CN2CCN(C(=O)CCNC(=O)c3ccc(Br)cc3)CC2)c1 | 0.563 µM (active) | > 60 µM (not active) | 
COC(=O)c1cc2c(ccn2-c2ccc(F)cc2)n1Cc1ccc(OC(C)=O)cc1 | 2.84 µM (active) | > 60 µM (not active) | 
Cc1c(C(=O)Nc2cccc(Cl)c2)c2ccccn2c1CCc1ccncc1 | 1.19 µM (active) | > 30 µM (not active) | 
COCCn1c(=O)c(-c2cccc(C#N)c2)nc2cnc(Oc3ccccc3)nc21 |  |  | AC50 (Cytochrome P450 2C19): 39.8 µM (inconclusive)
COc1ccc(CN2CCN(Cc3nc4ccccc4s3)CC2CCO)c(C)c1C (centres undefined) | 0.132 µM (active) | > 60 µM (inconclusive) | 
CN1CCN(S(=O)(=O)c2ccc3ncc(C(=O)O)c(O)c3c2)CC1 |  |  | AC50 (Cytochrome P450 2C19): 22.4 µM (inconclusive)
CCc1ccc(-n2nnnc2SCC(=O)Nc2ccc(NC(C)=O)cc2)cc1 | 2.19 µM (active) | > 60 µM (not active) | 
CCCC[C@H]1C[C@@H]1[C@@H]1N(P(=O)(c2ccccc2)c2ccccc2)[C@](CO)(c2ccccc2)CC12CC2 |  |  | AC50 (Cytochrome P450 2C19): 7.94 µM (inconclusive)
O=C(C1=C[C@@H](c2csc3ccccc23)C[C@@H](OCc2ccc(CO)cc2)O1)N1CCN(Cc2ccccc2)CC1 | 0.888 µM (active) | > 60 µM (not active) | 
COCCCn1c(SCc2ccccc2)nc2cc(OC)c(OC)cc2c1=N | 1.69 µM (active) | 11.5 µM (active) | 
Cc1ccc(S(=O)(=O)c2nc(NCc3ccc4c(c3)OCO4)sc2Cl)cc1 | 0.39 µM (active) | > 60 µM (not active) | 
Cc1ccc2c3ncn(Cc4ccco4)c(O)c-3nc2c1 |  |  | EC50 [3]: > 53 µM (inactive)
Cc1cccc(OCC(=O)N2CCC(N3CCCCCC3)CC2)c1 |  |  | AC50 (Cytochrome P450 2C19): 39.8 µM (inconclusive)
CC1=CC(=C(C#N)c2nc3ccccc3s2)C=C(C)N1c1ccc(F)cc1F |  |  | EC50 [3]: 10.2 µM (active)
CC(C)CN(C(=O)c1cc([N+](=O)[O-])cc([N+](=O)[O-])c1)C1CCS(=O)(=O)C1 (centres undefined) | 1.31 µM (active) | > 30 µM (not active) | 
